In patent US20130231472A1, “USE OF MOLECULAR MARKERS FOR THE PRECLINICAL PROFILING OF INHIBITORS OF ENZYMES HAVING HISTONE DEACETYLASE ACTIVITY” (priority 2002, published 2013):
Square brackets hold non-standard residues; d marks the D form. Peptide text beside a SMILES is read from it. * marks the point of attachment. Aoe = N[C@@H](CCCCCC(=O)[C@@H]1CO1)C(=O)O; Sta = CC(C)C[C@H](N)[C@@H](O)CC(=O)O; Isovaleryl = CC(C)CC(=O)*; Nle = CCCC[C@H](N)C(=O)O; Cbz = O=C(OCc1ccccc1)*

What was measured:
[1] = test system: stage III/IV non-small cell lung cancer; conditions: monotherapy, phase II; cited from earlier work
HDAC-2 [2] = assay: Ubiquitinated proteins in anti HDAC-2 immune precipitates (Westernblot against ubiquitin); assay type: cell-based; conditions: VPA 1.5 mM, 24 h; ALLN 5 μM; FIG. 10A
From the text: FIG. 10: (A) The total amount of high molecular weight poly-ubiquitinated protein was not altered by VPA treatment of cells (left two lanes). The presence of ubiquitinated proteins in anti HDAC-2 immune precipitates is shown in the right part of the panel. […] Ubiquitinated proteins in the precipitates were detected by Western blot analysis. For lane N a non-immune serum was used instead of the anti HDAC-2 antibody. (B) The presence of mono- and/or oligo-ubiquitinated HDAC-2 upon VPA treatment of HEK293T cells was determined by ectopic expression of His6-tagged ubiquitin followed by VPA-treatment for 36 h as indicated. The proteasome inhibitor MG-132 was added 4 h prior to analysis to enhance the accumulation of ubiquitinated proteins. Electrophoretic mobility and unaltered presence of non-ubiquitinated HDAC-2 were determined by Westernblot analysis of whole cell extracts (left panel). […] Anti-HDAC-2 immuno-reactive bands with the expected mobility of mono- or poly-ubiquitinated HDAC-2 are indicated by a bracket.

RLIM = RLIM protein levels in HEK293T cells (Westernblot); assay type: cell-based, human; conditions: 24 hours
Description: FIG. 12 (A) RLIM protein levels were determined by Westernblot analysis after treatment of HEK293T cells for 24 hours with the HDAC inhibitors VPA (0.5, 1.5, or 5 mM), TSA (30, 100 or 300 nM) or a combination of VPA (1.5 mM) and TSA (100 nM). Actin protein levels are shown as a control for equal loading. (B) RLIM protein levels were determined by Westernblot analysis after treatment of HEK293T cells for 24 hours with the HDAC inhibitor TSA (100 nM), the proteasome inhibitor ALLN (2.5 μM) or a combination of both. Actin protein levels are shown as a control for equal loading.

F9 cells = assay: Toxicity in F9 cells (cell loss, actin loading control); assay type: cell-based, murine; conditions: 48 h TSA (100 nM)
Description: (§1) FIG. 6: (A) F9 teratocarcinoma or HEK293T embryonic kidney cells were exposed for indicated times to 1 mM VPA. Protein levels of HDAC-2 and HDACs 1 or 3 for reference (HDAC8; N-CoR and Sin3 as data not shown) were determined by Westernblot analysis. […] (C) The effect of other HDAC inhibitors on the amount of HDAC-2 protein was determined by using TSA (100 nM) in a time course analysis in F9 cells (left panel). The HDAC inhibitors TSA (100 nM), trapoxin (TPX, 10 nM), butyrate (1.5 mM) or MS275 (5 μM) were tested at a single time of exposure in HEK293T cells (right panel).

HDAC-2 [3] = assay: HDAC-2 protein levels in F9 teratocarcinoma cells (Westernblot); assay type: cell-based, murine
Description: as §1

HDAC-2 [4] = assay: HDAC-2 protein levels in HEK293T cells (Westernblot); assay type: cell-based, human; conditions: for effect of proteasome inhibitor on VPA-induced degradation of HDAC-2: co-treatment with VPA, inhibitor added 4 h before harvest, FIG. 9B; for effect of protease inhibitor on control or VPA-repressed HDAC-2 protein levels: 24 h with or without VPA, FIG. 9A
Description: as §1
FIG. 9: (A) HEK293T cells were treated for 24 h with VPA or left untreated. The cell penetrating protease inhibitors pepstatin A, leupeptin, or ALLM were added as indicated at the time of VPA addition. (B) Proteasome inhibitors ALLN or MG-132 were added at the indicated concentrations 4 h before cells were harvested. Protein levels of HDAC-2 were determined by Westernblot analysis.

TRAIL = TRAIL expression in spleen after in vivo treatment (RNAse protection assay); design: species or system mice; conditions: leukemic mice; 96 hours of retinoic acid treatment (21-day-release pellet, 5 mg RA); FIG. 4A
Description: Leukemic mice or healthy mice (Ctrl) were then treated with placebo (lanes 1, 3), VPA (400 mg/kg every 12 hours), all-trans retinoic acid (a 21-day-release pellet containing 5 mg RA or placebo: lanes 8-9), and VPA plus retinoic acid (lanes 10-11). Mice were sacrificed 18 hours (lanes 4-5), or 36 hours after beginning of treatment (lanes 3, 6-7, 10-11): total RNAs were collected from the spleens (with a >75% invasion of leukemic blasts as assessed by Giemsa staining) and analyzed by RNAse protection assay to check for expression of TRAIL.

PML-RAR leukemia = conditions: one PML-RAR patient with multiple relapses after retinoic acid; cited from earlier work
T-cell lymphomas = conditions: phase II; cited from earlier work
HDACs = assay: Inhibition of HDACs; assay type: biochemical
[5] = HEK293T cells, VPA 1 mM, TSA 100 nM, trapoxin 10 nM, butyrate 1.5 mM, MS275 5 μM

Chain of HDAC-4 (P56524 whole entry): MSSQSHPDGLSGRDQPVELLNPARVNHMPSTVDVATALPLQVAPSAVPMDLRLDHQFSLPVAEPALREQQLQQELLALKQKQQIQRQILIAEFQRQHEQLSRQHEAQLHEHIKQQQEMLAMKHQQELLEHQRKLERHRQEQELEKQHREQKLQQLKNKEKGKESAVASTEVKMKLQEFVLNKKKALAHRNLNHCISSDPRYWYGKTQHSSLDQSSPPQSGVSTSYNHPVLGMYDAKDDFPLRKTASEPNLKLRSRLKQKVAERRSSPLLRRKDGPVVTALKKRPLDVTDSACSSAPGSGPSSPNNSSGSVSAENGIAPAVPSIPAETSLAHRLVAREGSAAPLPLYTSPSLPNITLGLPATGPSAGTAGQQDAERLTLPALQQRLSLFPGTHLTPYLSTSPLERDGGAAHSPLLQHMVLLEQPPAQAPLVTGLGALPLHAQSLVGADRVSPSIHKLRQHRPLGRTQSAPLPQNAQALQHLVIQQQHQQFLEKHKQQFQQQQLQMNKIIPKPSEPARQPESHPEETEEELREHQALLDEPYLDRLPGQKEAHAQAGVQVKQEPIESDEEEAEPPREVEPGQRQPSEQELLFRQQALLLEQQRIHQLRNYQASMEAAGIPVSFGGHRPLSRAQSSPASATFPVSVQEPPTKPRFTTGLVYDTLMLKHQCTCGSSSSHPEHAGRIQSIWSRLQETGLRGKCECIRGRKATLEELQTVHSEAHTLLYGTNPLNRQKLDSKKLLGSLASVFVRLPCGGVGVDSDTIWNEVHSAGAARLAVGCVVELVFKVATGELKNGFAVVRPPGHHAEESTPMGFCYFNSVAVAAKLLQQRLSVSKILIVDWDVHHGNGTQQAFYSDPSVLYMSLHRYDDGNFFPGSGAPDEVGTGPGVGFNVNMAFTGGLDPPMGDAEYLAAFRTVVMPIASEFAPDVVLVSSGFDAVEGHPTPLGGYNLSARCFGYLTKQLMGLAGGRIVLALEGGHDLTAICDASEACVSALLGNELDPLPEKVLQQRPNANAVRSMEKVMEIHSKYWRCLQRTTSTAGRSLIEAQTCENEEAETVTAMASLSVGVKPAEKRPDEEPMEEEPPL

For `CCCC(=O)OCOC(=O)C(C)(C)C` [Pivanex], the clinical activity [1] is given as “demonstrating activity in stage III/IV non-small cell lung cancer”.

For `CC(/C=C/C(=O)NO)=C\[C@@H](C)C(=O)c1ccc(N(C)C)cc1` [TSA, trichostatin A], the “amount of ubiquitinated protein precipitated with antibody against HDAC-2” value (HDAC-2 [2]) was “no effect”, the “RLIM protein levels / degradation” value (RLIM; VPA 0.5, 1.5 or 5 mM, TSA 30, 100 or 300 nM, FIG. 12) was “induce an enhanced proteosomal degradation of the E3 ligase RLIM” and the “toxicity (cell loss, reduction in actin loading control)” value (F9 cells) was “toxic”. For the same molecule, the HDAC-2 protein levels (HDAC-2 [3]) was “does not reduce HDAC-2 levels” and the HDAC-2 protein levels (HDAC-2 [4]) was “does not reduce HDAC-2 levels”.

In the case of `CC(C)C[C@@H](C=O)NC(=O)[C@H](CC(C)C)NC(=O)[C@H](CC(C)C)NC(=O)OCc1ccccc1` [MG-132] (Cbz-Leu-Leu-Leu-aldehyde), the “effect of proteasome inhibitor on VPA-induced degradation of HDAC-2” value (HDAC-2 [4]; HEK293T cells) is reported as “abolished VPA-induces degradation of HDAC-2 completely”.

In the case of MS-275, the HDAC-2 protein levels (HDAC-2 [4]; [5]) is reported as “Neither the cyclic tetrapeptide HDAC inhibitor trapoxin nor the anilide-based HDAC inhibitor MS-275 induces reduction of HDAC-2 protein levels”.

With `CC1=C(/C=C/C(C)=C/C=C/C(C)=C/C(=O)O)C(C)(C)CCC1` [retinoic acid, all-trans retinoic acid] the “TRAIL expression in spleen” value (TRAIL) was “as strongly as upon 96 hours of retinoic acid treatment”.

For phenylbutyrate, the “clinical response of leukemia” value (PML-RAR leukemia) is given as “complete remission of the leukemia”.

In the case of `C/C=C1\NC(=O)[C@H]2CSSCC/C=C/[C@H](CC(=O)N[C@H](C(C)C)C(=O)N2)OC(=O)[C@H](C(C)C)NC1=O` [depsipeptide], the clinical outcome (T-cell lymphomas) is listed as “used successfully”.

In the case of `CC(C)CC(=O)N[C@H](C(=O)N[C@H](C(=O)N[C@@H](CC(C)C)[C@@H](O)CC(=O)N[C@@H](C)C(=O)N[C@@H](CC(C)C)[C@@H](O)CC(=O)O)C(C)C)C(C)C` [pepstatin A] (Isovaleryl-VV[Sta]A[Sta]-OH), the “effect of protease inhibitor on control or VPA-repressed HDAC-2 protein levels” value (“effect of protease inhibitor” below) (HDAC-2 [4]; HEK293T cells) is reported as “Neither of the protease inhibitors pepstatin A, leupeptin or ALLM had an effect”.

With `O=C1N[C@@H](Cc2ccccc2)C(=O)N2CCC[C@@H]2C(=O)N[C@@H](CCCCCC(=O)[C@@H]2CO2)C(=O)N[C@H]1Cc1ccccc1` [trapoxin] (cyclo(FF[dP][Aoe])) the HDAC-2 protein levels (HDAC-2 [4]; [5]) was “Neither the cyclic tetrapeptide HDAC inhibitor trapoxin nor the anilide-based HDAC inhibitor MS-275 induces reduction of HDAC-2 protein levels”.

With `CC(=O)N[C@@H](CC(C)C)C(=O)N[C@@H](CC(C)C)C(=O)N[C@H](C=O)CCCNC(=N)N` [leupeptin] the “effect of protease inhibitor” value (HDAC-2 [4]; HEK293T cells) was “Neither of the protease inhibitors pepstatin A, leupeptin or ALLM had an effect”.

With `CCCC[C@@H](C=O)NC(=O)[C@H](CC(C)C)NC(=O)[C@H](CC(C)C)NC(C)=O` [ALLN] (Ac-Leu-Leu-[Nle]-aldehyde) the “amount of ubiquitinated protein precipitated with antibody against HDAC-2” value (HDAC-2 [2]) was “increase the amount of this anti-ubiquitin reactive protein”, the “block of TSA-induced proteosomal degradation of RLIM” value (RLIM; TSA 100 nM plus ALLN 2.5 μM, FIG. 12B) was “can be blocked” and the “effect of proteasome inhibitor on VPA-induced degradation of HDAC-2” value (HDAC-2 [4]; HEK293T cells) was “abolished VPA-induces degradation of HDAC-2 completely”.

With `CSCC[C@@H](C=O)NC(=O)[C@H](CC(C)C)NC(=O)[C@H](CC(C)C)NC(C)=O` [ALLM] (Ac-Leu-Leu-Met-aldehyde) the “effect of protease inhibitor” value (HDAC-2 [4]; HEK293T cells) was “Neither of the protease inhibitors pepstatin A, leupeptin or ALLM had an effect”.

With `CCCC(=O)O` [Butyrate, butyric acid] the HDAC-2 protein levels (HDAC-2 [4]; [5]) was “Reduction of HDAC-2 protein levels”.

In the case of `CCCC(CCC)C(N)=O` [valpromide], the HDAC inhibition (HDACs) is reported as “does not inhibit HDACs” and the HDAC-2 protein levels (HDAC-2 [4]; cell line and concentration not stated) is reported as “does not affect HDAC-2 protein levels”.

B1: E3 ubiquitin ligase RLIM (protein)
chain: MENSDSNDKGSGDQSAAQRRSQMDRLDREEAFYQFVNNLSEEDYRLMRDNNLLGTPGESTEEELLRRLQQIKEGPPPQNSDENRGGDSSDDVSNGDSIIDWLNSVRQTGNTTRSGQRGNQSWRAVCRTNPNSGNFRFSLEINVYSNNGSQNSENENEPSARRSSGENVENNSQRQVENPRSESTSARPSRSERNSTEALTEVPPTRGQRRARSRSPDHRRTRARAERSRSPLHPMSEIPRRSHHSISSQTFEHPLVNETEGSSRTRHHVTLRQQISGPELLSRGLFAASGTRNASQGAGSSDTAASGESTGSGQRPPTIVLDLQVRRVRPGEYRQRDSIASRTRSRSQTPNNTVTYESERGGFRRTFSRSERAGVRTYVSTIRIPIRRILNTGLSETTSVAIQTMLRQIMTGFGELSYFMYSDSDSEPTGSVSNRNMERAESRSGRGGSGGGSSSGSSSSSSSSSSSSSSSSSSSSPSSSSGGESSETSSDLFEGSNEGSSSSGSSGARREGRHRAPVTFDESGSLPFLSLAQFFLLNEDDDDQPRGLTKEQIDNLAMRSFGENDALKTCSVCITEYTEGNKLRKLPCSHEYHVHCIDRWLSENSTCPICRRAVLASGNRESVV
With B1 the “in vitro ubiquitination (Ubc8 as E2, RLIM as E3)” value (HDAC-4) was “the class II HDAC-4 are substrates for Ubc8/RLIM”.
